One experiment addresses T1, human mAChR M4 (Homo sapiens, UniProt P08173).
T1 sequence (P08173 1-479): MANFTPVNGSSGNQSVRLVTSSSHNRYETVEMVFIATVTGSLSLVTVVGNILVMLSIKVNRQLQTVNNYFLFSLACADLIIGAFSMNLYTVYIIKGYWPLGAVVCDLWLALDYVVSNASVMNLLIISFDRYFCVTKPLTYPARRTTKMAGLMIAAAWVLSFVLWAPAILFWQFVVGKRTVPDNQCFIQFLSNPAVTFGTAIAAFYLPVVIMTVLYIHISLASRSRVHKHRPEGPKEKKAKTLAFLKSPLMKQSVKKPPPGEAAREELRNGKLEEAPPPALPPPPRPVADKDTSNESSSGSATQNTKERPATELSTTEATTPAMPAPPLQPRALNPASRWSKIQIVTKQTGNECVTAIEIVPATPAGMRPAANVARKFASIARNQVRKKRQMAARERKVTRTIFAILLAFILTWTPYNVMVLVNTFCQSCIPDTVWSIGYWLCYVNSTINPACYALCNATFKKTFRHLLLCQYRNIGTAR
The experiment can be described thus: mAChR M4 cell-based functional assay (calcium flux), human M4. The settings on record: for Emax: % ACh maximum at 30 μM. On the technique in general: Calcium flux is commonly read through the fluorescence of an indicator in the cells.

In the next experiment the target is T2, rat mAChR M4 (Rattus norvegicus, UniProt P08485).
T2 sequence (P08485 1-478): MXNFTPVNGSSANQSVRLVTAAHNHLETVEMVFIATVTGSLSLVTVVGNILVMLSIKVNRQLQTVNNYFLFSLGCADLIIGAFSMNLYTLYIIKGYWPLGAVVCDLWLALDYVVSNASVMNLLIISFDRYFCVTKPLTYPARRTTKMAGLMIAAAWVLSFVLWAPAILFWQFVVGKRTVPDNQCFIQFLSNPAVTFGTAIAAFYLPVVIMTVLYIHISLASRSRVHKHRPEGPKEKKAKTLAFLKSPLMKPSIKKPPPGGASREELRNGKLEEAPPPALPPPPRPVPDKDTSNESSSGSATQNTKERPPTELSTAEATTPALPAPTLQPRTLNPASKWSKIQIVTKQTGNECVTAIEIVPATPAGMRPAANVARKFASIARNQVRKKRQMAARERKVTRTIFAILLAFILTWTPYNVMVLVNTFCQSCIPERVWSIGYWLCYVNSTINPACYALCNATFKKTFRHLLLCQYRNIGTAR
Description: mAChR M4 cell-based functional assay (calcium flux), rat M4. On the set-up: Emax: dose or concentration left out as unconfirmed. Conditions: for EC50: read-out: Rat M4 EC50, CHO-K1 rM4-Gqi5 cells, calcium flux, increase in EC20 acetylcholine response.

The mark [1] stands for this setting: Human M4 EC50, CHO-K1 hM4-Gqi5 cells, calcium flux, increase in EC20 acetylcholine response.
Where [2] appears, read: Human M4 EC50 (nM), Table 10, calcium flux, PAM activity with EC20 acetylcholine.
[3] abbreviates: Human M4 EC50 (nM), Table 11, calcium flux, PAM activity with EC20 acetylcholine.

The structures appear in SMILES notation. Structures can show the parent of a compound that is named as a salt. Where only a bound is given, the exact number is not on record here.

As for `Cc1nnc2sc3c(N4CCCC4)ncnc3c2c1C` [Compound 6, 3,4-dimethyl-8-(pyrrolidin-1-yl)pyrimido[4′,5′:4,5]thieno [2,3-c]pyridazine], the Emax was determined as 68% on human mAChR M4 (Human M4) and 82% at rat mAChR M4.
Take `Cc1nnc2sc3c(N4CCN(C5CC5)CC4)ncnc3c2c1C` [Compound 8, 8-(4-cyclopropylpiperazin-1-yl)-3,4-dimethylpyrimido [4′,5′:4,5]thieno[2,3-c] pyridazine]: the Emax came out at 30% at human mAChR M4 (Human M4) and 42% on rat mAChR M4. In addition, the EC50 on human mAChR M4 (setting [1]) is 616 nM; at rat mAChR M4, 700 nM.
For `Cc1nnc2sc3c(NC4CN(c5ncc(C(F)(F)F)cn5)C4)ncnc3c2c1C` [Compound 7, 3,4-dimethyl-N-(1-(5-(trifluoromethyl)pyrimidin-2-yl)azetidin-3-yl)pyrimido[4′,5′:4,5] thieno[2,3-c]pyridazin-8-amine], in that order: 74%, 86%, 251 nM and 30 nM.
For `Cc1nnc2sc3c(N4CC5(COC5)C4)ncnc3c2c1C` [Compound 13, 6-(3,4-dimethylpyrimido [4′,5′:4,5]thieno[2,3-c]pyridazin-8-yl)-2-oxa-6-azaspiro[3.3]heptane], in that order: 73%, 86%, 123 nM and 231 nM.
For the molecule `Cc1cnc2sc3c(NC4CN(c5ncc(C(F)(F)F)cn5)C4)ncnc3c2c1` [Compound 17, 8-methyl-N-(1-(5-(trifluoromethyl)pyrimidin-2-yl)azetidin-3-yl)pyrido[3′,2′:4,5] thieno[3,2-d]pyrimidin-4-amine], the Emax stood at 32% at human mAChR M4 (Human M4) and 76% at rat mAChR M4. Further, the EC50 at rat mAChR M4 is 424 nM.
`Cc1nnc2sc3c(NC(C)c4ccc(C(C)(C)O)cc4)ncnc3c2c1C` (stereo not shown) [Compound 100, 2-[4-[1-[(3,4-dimethylpyrimido [4′,5′:4,5]thieno[2,3-c]pyridazin-8-yl)amino]ethyl]phenyl]propan-2-ol]: the EC50 on human mAChR M4 (setting [2]) came to 7720 nM. For the same molecule, the Emax on human mAChR M4 (Table 10) was determined as 52.2%.
Taken in the same sequence, the figures for `Cc1nnc2sc3c(NCc4ccc(C(=O)NC5CC6(COC6)C5)cc4)ncnc3c2c1C` [Compound 154, 4-[[(3,4-dimethylpyrimido [4′,5′:4,5]thieno[2,3-c]pyridazin-8-yl)amino]methyl]-N-(2-oxaspiro [3.3]heptan-6-yl)benzamide] were 109 nM and 87.2%.
Turning to `Cc1nnc2sc3c(NCc4ccc(C(C)(C)O)cc4Cl)ncnc3c2c1C` [Compound 189, 2-[3-chloro-4-[[(3,4-dimethylpyrimido [4′,5′:4,5]thieno[2,3-c]pyridazin-8-yl)amino]methyl]phenyl]propan-2-ol], the EC50 at human mAChR M4 (setting [2]) is 831 nM. At human mAChR M4 (Table 10), the Emax was 94.3%.
Taken in the same sequence, the figures for `Cc1nnc2sc3c(NCc4ccc(C(=O)N5CCC(F)(F)CC5)cc4)ncnc3c2c1C` [Compound 130, (4,4-difluoro-1-piperidyl)-[4-[[(3,4-dimethylpyrimido [4′,5′:4,5]thieno[2,3-c]pyridazin-8-yl)amino]methyl]phenyl]methanone] were 724 nM and 93.2%.
In the case of `Cc1nnc2sc3c(NC4CN(c5ncc(Cl)cc5Cl)C4)ncnc3c2c1C` [Compound 314, N-[1-(3,5-dichloro-2-pyridyl)azetidin-3-yl]-3,4-dimethyl-pyrimido [4′,5′:4,5]thieno[2,3-c] pyridazin-8-amine], the EC50 at human mAChR M4 (setting [3]) turned out to be 1830 nM. Also, the Emax on human mAChR M4 (Table 11) worked out at 71.5%.
Regarding `Cc1nnc2oc3c(NCc4cccc(C5(O)CCC5)c4)ncnc3c2c1C` [Compound 66, 1-[3-[[(3,4-dimethylpyrimido [4′,5′:4,5]furo[2,3-c]pyridazin-8-yl)amino]methyl]phenyl]cyclobutanol], the Emax on human mAChR M4 (Human M4) is 61.1%.
On to `Cc1c(Cl)cnc2sc3c(NCc4cnc5c(c4)CCC5)ncnc3c12` [Compound 235, 8-chloro-N-(6,7-dihydro-5H-cyclopenta[b]pyridin-3-ylmethyl)-9-methyl-pyrido [3′,2′:4,5]thieno[3,2-d] pyrimidin-4-amine], for which the EC50 on human mAChR M4 (setting [2]) came to 2890 nM. Moreover, the Emax on human mAChR M4 (Table 10) was 31.8%.
Taken in the same sequence, the figures for `CCCCCC(=O)N1CC2(CC(Nc3ncnc4c3sc3nnc(C)c(C)c34)C2)C1` [Compound 170, 1-[6-[(3,4-dimethylpyrimido [4′,5′:4,5]thieno[2,3-c]pyridazin-8-yl)amino]-2-azaspiro[3.3]heptan-2-yl]hexan-1-one; 2,2,2-trifluoroacetate acid] were 1260 nM and 41%.
For the molecule `Cc1nnc2sc3c(N4CC(Oc5cccnc5)C4)ncnc3c2c1C` [Compound 356, 3,4-dimethyl-8-[3-(3-pyridyloxy)azetidin-1-yl]pyrimido[4′,5′:4,5]thieno [2,3-c]pyridazine dihydrochloride], at human mAChR M4 (setting [3]), the EC50 was determined as 1170 nM. The Emax on human mAChR M4 (Table 11) was 32.8%.
As to `COc1nnc2sc3c(NC4CN(c5ncc(C(F)(F)F)cn5)C4)ncnc3c2c1C` [Compound 282, 3-methoxy-4-methyl-N-[1-[5-(trifluoromethyl)pyrimidin-2-yl]azetidin-3-yl]pyrimido[4′,5′:4,5]thieno [2,3-c]pyridazin-8-amine], the EC50 on human mAChR M4 (setting [2]) worked out at 1140 nM. In addition, the Emax on human mAChR M4 (Table 10) came out at 90.9%.
As to `CC(=O)NC1CN(c2ncnc3c2sc2nnc(C)c(C)c23)C1` [Compound 96, N-[1-(3,4-dimethylpyrimido [4′,5′:4,5]thieno[2,3-c]pyridazin-8-yl)azetidin-3-yl]acetamide], the EC50 on human mAChR M4 (setting [2]) worked out at 830 nM. The Emax on human mAChR M4 (Table 10) came to 60.3%.
Taken in the same sequence, the figures for `Cc1nnc2sc3c(NCc4ccc(-c5cccnc5F)cc4)ncnc3c2c1C` [Compound 79, N-(4-(2-fluoropyridin-3-yl)benzyl)-3,4-dimethylpyrimido [4′,5′:4,5]thieno[2,3-c] pyridazin-8-amine] were 773 nM and 95.2%.
For `COc1cc(CNc2ncnc3c2sc2ncc(Cl)c(C)c23)cc(OC)c1` [Compound 230, 8-chloro-N-[(3,5-dimethoxyphenyl)methyl]-9-methyl-pyrido [3′,2′:4,5]thieno[3,2-d] pyrimidin-4-amine], at human mAChR M4 (Human M4 EC50 (nM), Table 10, unit μM (bounds)), the EC50 was more than 10000 nM. Also, the Emax on human mAChR M4 (Table 10) was 37.3%.
`Cc1cc(C)c2c(n1)sc1c(N3CC4CC4C3)ncnc12` (stereo not shown) [Compound 196, 4-(3-azabicyclo [3.1.0]hexan-3-yl)-7,9-dimethyl-pyrido [3′,2′:4,5]thieno[3,2-d] pyrimidine]: at human mAChR M4 (setting [2]), the EC50 was 453 nM. Also, the Emax at human mAChR M4 (Table 10) stood at 74.5%.
On to `Cc1nnc2sc3c(N4CC(C)(O)C4)ncnc3c2c1C` [Compound 80, 1-(3,4-dimethylpyrimido [4′,5′:4,5]thieno[2,3-c]pyridazin-8-yl)-3-methyl-azetidin-3-ol], for which the Emax on human mAChR M4 (Table 10) is 62.1%.
For `Cc1c(Cl)cnc2sc3c(N4CCC(F)C4)ncnc3c12` (stereo not shown) [Compound 220, 8-chloro-4-(3-fluoropyrrolidin-1-yl)-9-methyl-pyrido [3′,2′:4,5]thieno[3,2-d] pyrimidine], the EC50 at human mAChR M4 (setting [2]) was found to be 885 nM. The Emax on human mAChR M4 (Table 10) was 63.8%.
For `Cc1nnc2oc3c(NC4CC(F)(F)C4)ncnc3c2c1C` [Compound 306, N-(3,3-difluoro-cyclobutyl)-3,4-dimethyl-pyrimido [4′,5′:4,5]furo[2,3-c]pyridazin-8-amine], in that order: 1750 nM and 57.9%.
For `CC(=O)N1CC(Nc2ncnc3c2sc2nnc(C)c(C)c23)C1` [Compound 35, 1-(3-((3,4-dimethylpyrimido [4′,5′:4,5]thieno[2,3-c]pyridazin-8-yl)amino)azetidin-1-yl)ethan-1-one], on human mAChR M4 (Human M4), the Emax turned out to be 79%. In addition, the EC50 on human mAChR M4 (setting [1]) came to 53 nM.
`Cc1nnc2sc3c(N4CC[C@H](C(C)(C)O)C4)ncnc3c2c1C` [Compound 354, 2-[(3S)-1-(3,4-dimethylpyrimido[4′,5′:4,5]thieno[2,3-c]pyridazin-8-yl)pyrrolidin-3-yl]propan-2-ol]: on human mAChR M4 (setting [3]), the half-maximal effective concentration (EC50) turned out to be 362 nM. In addition, the Emax at human mAChR M4 (Table 11) was determined as 53%.
For `Cc1nc2sc3c(N4CCC(F)(F)C4)ncnc3c2c(C)c1Cl` [Compound 255, 8-chloro-4-(3,3-difluoropyrrolidin-1-yl)-7,9-dimethyl-pyrido [3′,2′:4,5]thieno[3,2-d] pyrimidine hydrochloride], the EC50 on human mAChR M4 (setting [2]) was 2340 nM. Further, the Emax at human mAChR M4 (Table 10) turned out to be 73%.

As usually defined, the Emax is the greatest response seen or fitted, relative to the assay's reference. A word on the EC50: it is the concentration giving half of the maximal effect.
